Assays:
[1] = test system: VRE clinical isolate C21667; assay type: cell-based, E. faecalis
[2] = test system: VRE clinical isolate S234; experiment: organism not typed; assay type: cell-based, E. faecalis
[3] = test system: VRE clinical isolate SL152; assay type: cell-based, E. faecium
[4] = test system: VRE clinical isolate S557; experiment: organism not typed; assay type: cell-based, E. faecium
[5] = test system: VRE clinical isolate S344; assay type: cell-based, E. faecium
VRE clinical isolate D1 = experiment: organism not typed; assay type: cell-based, E. faecium
[6] = test system: VRE clinical isolate C28535; assay type: cell-based, E. faecalis
[7] = test system: VRE clinical isolate C27569; assay type: cell-based, E. faecium

Measured: MIC

Cc1cc(=O)n(C)c2c3c4c(cc12)c(C)cc(=O)n4CO3 [DNM, deoxynybomycin]
0.25 µg/mL: all assays above

CCn1c(=O)cc(C)c2cc3c(C)cc(=O)n4c3c(c21)OC4 [DNM-2]
0.25 µg/mL: [6] | [7]
